According to patent US6683083B1, “Anticancer agents” (priority 1999, dated 2004):
Several values for one entry are separate records, joined by “and”; a condition that tells them apart may be missing. Equal entries are not always repeated.

Columns and labels:
[1] = Entire body state and weight of tumor-bearing nude mice; assay type: in vivo, female nude mice BALB/c nu/nu; conditions: 3 and 5 mg/kg by tail injection, once a day on 7th, 8th, 10th, 11th days after implantation
Experimental: For six subjects of the group number 1, the compound 1 was administered by injecting from each tail of the nude mice on each of the 7th, 8th, 10th and 11th days after the implantation, at 3 mg of the compound 1 per kg of weight once a day. For six subjects of the group number 2, the compound 1 was administered by injecting from each tail of the nude mice on each of the 7th, 8th, 10th and 11th days after the implantation, at 5 mg of the compound 1 per kg of weight once a day. The subjects of the group number […] to be the controls were a group having no administration of the compound 1, and neither administration nor treatment of the compound 1 was performed on the controls. […] However, in the result of each tumor volume of the mice, a specific difference was found between the subjects of the group numbers 1 to 3. The measurement of the tumor volumes is shown in the following Table 2, and the average of the tumor volumes in each of the groups is shown in Table 3. In Tables 2 and 3, each size of the tumor volumes after the 2nd day is represented on condition that the size of the tumor volume on the 1st day is 100.

[2] = test system: human non-small-cell lung cancer cell line PC-14; test: PC-14 subcutaneous implant in nude mice, tumor volume; assay type: in vivo, female nude mice BALB/c nu/nu; parameters: key: relative tumor volume, 1st day = 100; volume = minor axis^2 × major axis; conditions: 1st day = 100
[3] = test system: SBC-3 (human small-cell lung cancer cell line); test: MTT assay, in vitro antitumor effect; assay type: cell-based; conditions: SBC-3, 96 hours incubation, average±error range of triple culture tests, read-out: amount of compound 1 required to achieve IC50
Excerpt: (§1) (2) Verification of In Vitro Antitumor Effects on Various Human Cancer Cell Lines According to the MTT Assay Method.
(§2) Each single cell of a human non-small-cell lung cancer cell line PC-14, a human non-small-cell lung cancer cell line SBC-3, a human […] cell line MCF-7, a human non-small-cell ovarian cancer cell line SKOV3, a human leukemia cell line HL60 and a human colon cancer cell line WiDR was obtained by trypsinization or by using a cell scraper in RPMI 1640 medium to prepare a suspension containing 100 cells per 15 μl. The compound 1 as an anticancer agent was dissolved in dimethylsulfoxide and then the solution was added to the suspension to make the concentration of the compound fall within a range between 0.5 and 1 μM, and the resulting suspension was poured into a 96-perforated plate at 150 μl/well. This plate was maintained at a temperature of 37° C. under 5% of carbon dioxide and saturated vapor for 96 hours to incubate the suspension. After incubation, the incubated suspension was combined with 20 μl of MTT (3-(4,5-dimethylthiazol-2-yl)-2,5-diphenyltetrazoliumbromide) reagent dissolved in D-PBS (−) at a concentration of 5 mg/ml, and was further incubated at 37° C. for 4 hours. After the completion of incubation, the entire plate was centrifuged to discharge supernatant. Then, 200 μl of dimethyl sulfoxide was added to dissolve purple formazan which is created from yellow MTT by the action of dehydrogenase lying in mitochondria in the cancer cell, and the amount of the created formazan was determined by reading the absorbance at a wave length ranging from 562 to 630 nm with a multi-plate reader. Given that the average growth rate of a negative control is […] and the average growth rate of a positive control is 100%, a tumor-volume growth curve was plotted, and the concentration of compound 1 required for 50% of human cancer-cell proliferation suppression was calculated.
(§3) The values in Table 1 indicate each value of the concentration required for 50% of human cancer-cell proliferation suppression from the MTT assay in triple culture tests of independent cancer cells using compound 1 by average±error range (μM).

[4] = test system: HL60 (human leukemia cell line); test: MTT assay, in vitro antitumor effect; assay type: cell-based; conditions: HL60, 96 hours incubation, average±error range of triple culture tests, read-out: amount of compound 1 required to achieve IC50
Excerpt: as §1, §2, §3

[5] = test system: MCF-7 (human mammary cancer cell line); test: MTT assay, in vitro antitumor effect; assay type: cell-based; conditions: MCF-7, 96 hours incubation, average±error range of triple culture tests, read-out: amount of compound 1 required to achieve IC50
Excerpt: as §1, §2, §3

[6] = test system: human non-small-cell lung cancer cell line PC-14; test: MTT assay, in vitro antitumor effect; assay type: cell-based; conditions: PC-14, 96 hours incubation, average±error range of triple culture tests, read-out: amount of compound 1 required to achieve IC50
Excerpt: as §1, §2, §3

[7] = test system: WiDR (human colon cancer cell line); test: MTT assay, in vitro antitumor effect; assay type: cell-based; conditions: 96 hours incubation, average±error range of triple culture tests, read-out: amount of compound 1 required to achieve IC50
Excerpt: as §1, §2, §3

[8] = test system: SKOV3 (human ovarian cancer cell line); test: MTT assay, in vitro antitumor effect; assay type: cell-based; conditions: SKOV3, 96 hours incubation, average±error range of triple culture tests, read-out: amount of compound 1 required to achieve IC50
Excerpt: as §1, §2, §3

[9] = test system: fibroblasts NIH3T3; test: Fibroblast cell-proliferation suppression (cell count); assay type: cell-based; conditions: NIH3T3, 1×10^−6 M and 3×10^−6 M, cell number every 24 hours, FIG. 1
Experimental: FIG. 1 is a graph showing a cell-proliferation suppressing action against fibroblast of the compound represented by the above general formula [1] and the like shown in Example 2.
Nine plates were prepared for each of control and compound 1 groups each having a concentration of 1×10^−6 M and a compound 1 group having a concentration of 3×10^−6 M (total of 27 plates). The number 4.4×10^5 of fibroblasts NIH3T3 were added to each of the 27 plates, and D-MEM culture solution added with 10% FBS (fetal bovine serum) was added thereto. Each of the controls was incubated with added water corresponding to the added amount of compound 1. The number of cells in 3 plates of each of the groups was measured every 24 hours, and the measured numbers were averaged to provide an average cell number per plate.

[10] = test system: various cancers; test: Overall carcinostatic effect, results of examples 1 to 3; conditions: overall statement

## OC(CN1CCN(C(c2ccccc2)c2ccccc2)CC1)CN1CCC(O)(c2ccc(Cl)cc2)CC1 (stereo not shown) [compound 1, 1-[1-4-(diphenylmethyl)piperazinyl]-3-[1-{4-(4-chlorophenyl)-4-hydroxy}piperidinyl]-2-propanol]
[1]
  entire body state and weight of the mice versus control: substantially no difference
[2]; group No. 2 (3 mg/kg tail injection), 2 day
  tumor volume, average (6 mice): 89.79
[2]; group No. 2 (3 mg/kg tail injection), 2 day, 3 mg/kg
  tumor volume, individual mice: 45.35 and 120.51 and 139.67 and 73.21 and 73.29 and 66.68
[2]; group No. 2 (3 mg/kg tail injection), 3 day
  tumor volume, average (6 mice): 67.01
[2]; group No. 2 (3 mg/kg tail injection), 3 day, 3 mg/kg
  tumor volume, individual mice: 20.22 and 98.14 and 85.27 and 52.91 and 62.47 and 83.06
[2]; group No. 2 (3 mg/kg tail injection), 4 day
  tumor volume, average (6 mice): 68.38
[2]; group No. 2 (3 mg/kg tail injection), 4 day, 3 mg/kg
  tumor volume, individual mice: 46.17 and 80.18 and 105.01 and 42.19 and 31.02 and 85.73
[2]; group No. 2 (3 mg/kg tail injection), 5 day
  tumor volume, average (6 mice): 46.68
[2]; group No. 2 (3 mg/kg tail injection), 5 day, 3 mg/kg
  tumor volume, individual mice: 31.44 and 66.58 and 67.76 and 22.55 and 18.55 and 51.09
[2]; group No. 2 (3 mg/kg tail injection), 6 day
  tumor volume, average (6 mice): 47.73
[2]; group No. 2 (3 mg/kg tail injection), 6 day, 3 mg/kg
  tumor volume, individual mice: 30.93 and 122.90 and 55.16 and 0.00 and 10.11 and 51.30
[2]; group No. 2 (3 mg/kg tail injection), 7 day
  tumor volume, average (6 mice): 42.99
[2]; group No. 2 (3 mg/kg tail injection), 7 day, 3 mg/kg
  tumor volume, individual mice: 52.68 and 99.04 and 75.58 and 0.00 and 12.98 and 47.68
[2]; group No. 2 (3 mg/kg tail injection), 8 day
  tumor volume, average (6 mice): 58.33
[2]; group No. 2 (3 mg/kg tail injection), 8 day, 3 mg/kg
  tumor volume, individual mice: 56.49 and 127.45 and 130.56 and 0.00 and 4.97 and 30.49
[2]; group No. 3 (5 mg/kg tail injection), 2 day
  tumor volume, average (6 mice): 78.63
[2]; group No. 3 (5 mg/kg tail injection), 2 day, 5 mg/kg
  tumor volume, individual mice: 55.40 and 63.47 and 93.53 and 68.25 and 90.42 and 80.68
[2]; group No. 3 (5 mg/kg tail injection), 3 day
  tumor volume, average (6 mice): 75.11
[2]; group No. 3 (5 mg/kg tail injection), 3 day, 5 mg/kg
  tumor volume, individual mice: 58.27 and 43.51 and 72.22 and 113.73 and 70.23 and 92.68
[2]; group No. 3 (5 mg/kg tail injection), 4 day
  tumor volume, average (6 mice): 74.99
[2]; group No. 3 (5 mg/kg tail injection), 4 day, 5 mg/kg
  tumor volume, individual mice: 79.34 and 40.73 and 83.65 and 123.79 and 36.86 and 84.55
[2]; group No. 3 (5 mg/kg tail injection), 5 day
  tumor volume, average (6 mice): 60.45
[2]; group No. 3 (5 mg/kg tail injection), 5 day, 5 mg/kg
  tumor volume, individual mice: 47.44 and 40.65 and 62.95 and 103.32 and 28.95 and 79.20
[2]; group No. 3 (5 mg/kg tail injection), 6 day
  tumor volume, average (6 mice): 53.82
[2]; group No. 3 (5 mg/kg tail injection), 6 day, 5 mg/kg
  tumor volume, individual mice: 33.96 and 32.21 and 54.93 and 135.18 and 14.65 and 51.96
[2]; group No. 3 (5 mg/kg tail injection), 7 day
  tumor volume, average (6 mice): 64.86
[2]; group No. 3 (5 mg/kg tail injection), 7 day, 5 mg/kg
  tumor volume, individual mice: 34.07 and 36.27 and 86.76 and 129.59 and 17.36 and 85.12
[2]; group No. 3 (5 mg/kg tail injection), 8 day
  tumor volume, average (6 mice): 62.63
[2]; group No. 3 (5 mg/kg tail injection), 8 day, 5 mg/kg
  tumor volume, individual mice: 47.99 and 15.80 and 102.87 and 140.33 and 7.22 and 61.54
[3]
  IC50: 0.46 ± 0.03 µM
[4]
  IC50: 1.18 ± 0.05 µM
[5]
  IC50: 0.6 ± 0.08 µM
[6]
  IC50: 1.02 ± 0.2 µM
[7]
  IC50: 0.41 ± 0.03 µM
[8]
  IC50: 0.85 ± 0.02 µM
[9]
  cell-proliferation suppressing action against fibroblast: effectiveness to proliferative lesions
[10]
  carcinostatic effect (results of examples 1 to 3): high carcinostatic effect
